How the values were obtained:
Huh-7 [1] = experiment: Inhibition of HCV genotype-1a NS5A infected in human HuH7 cells by luciferase reporter gene assay; assay type: cell-based; conditions: Hepatitis C virus subtype 1a
[2] = system: T1, Nonstructural protein 5A (Hepatitis C virus), Q5L478 [Y93H]; experiment: Inhibition of HCV genotype-1a NS5A Y93H mutant infected in human HuH7 cells by luciferase reporter gene assay; assay type: cell-based; conditions: Hepatitis C virus subtype 1a; Huh-7
T1 sequence (whole entry): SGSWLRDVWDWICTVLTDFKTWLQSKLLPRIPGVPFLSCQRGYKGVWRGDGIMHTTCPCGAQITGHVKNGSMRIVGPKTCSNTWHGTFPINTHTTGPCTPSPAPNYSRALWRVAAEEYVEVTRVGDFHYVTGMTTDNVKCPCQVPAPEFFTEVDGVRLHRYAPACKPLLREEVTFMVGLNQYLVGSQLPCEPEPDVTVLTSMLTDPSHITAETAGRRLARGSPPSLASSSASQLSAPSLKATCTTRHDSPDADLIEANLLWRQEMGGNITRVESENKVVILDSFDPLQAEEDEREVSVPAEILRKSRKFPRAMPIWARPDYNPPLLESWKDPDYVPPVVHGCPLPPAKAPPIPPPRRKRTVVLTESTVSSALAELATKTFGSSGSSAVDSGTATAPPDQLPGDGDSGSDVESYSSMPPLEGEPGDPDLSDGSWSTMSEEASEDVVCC

Huh-7 [3] = experiment: Inhibition of HCV genotype-2b NS5A harboring methionine at position 31 infected in human HuH7 cells by luciferase reporter gene assay; assay type: cell-based; conditions: Hepatitis C virus subtype 2b
[4] = system: Hepatitis C virus subtype 1a; experiment: Selectivity ratio for EC90 for HCV genotype-1a NS5A Y93H mutant to EC90 for HCV genotype-1a NS5A
[5] = Selectivity ratio for EC90 for HCV genotype-2b NS5A harboring methionine at position 31 to EC90 for HCV genotype-1a NS5A
[6] = system: Nonstructural protein 5A (Hepatitis C virus), Q5L478 [UNDEFINED MUTATION]; experiment: Inhibition of HCV genotype-1a NS5A L31V mutant infected in human HuH7 cells by luciferase reporter gene assay; assay type: cell-based; conditions: Hepatitis C virus subtype 1a; Huh-7
Huh-7 [7] = experiment: Inhibition of HCV genotype-3a NS5A infected in human HuH7 cells by luciferase reporter gene assay; assay type: cell-based; conditions: Hepatitis C virus subtype 3a
Huh-7 [8] = experiment: Inhibition of HCV genotype-4a NS5A infected in human HuH7 cells by luciferase reporter gene assay; assay type: cell-based; conditions: Hepatitis C virus subtype 4a

## CCc1ccc([C@@H]2Oc3cc(-c4cnc([C@@H]5CCCN5C(=O)[C@@H](NC(=O)OC)C(C)C)[nH]4)ccc3-c3cc4cc(-c5cnc([C@@H]6CCCN6C(=O)[C@@H](NC(=O)OC)C(C)C)[nH]5)ccc4n32)s1
Huh-7 [1]
  EC90: 0.005 nM
[2]
  EC90: 3.4 nM
Huh-7 [3]
  EC90: 0.25 nM
[4]
  Selectivity ratio: 680
[5]
  Selectivity ratio: 50

## COC(=O)N[C@H](C(=O)N1CCC[C@H]1c1ncc(-c2cc(F)c3c(c2)OC(c2cnc(C4(C)CC4)s2)n2c-3cc3cc(-c4cnc([C@@H]5C[C@H]6C[C@H]6N5C(=O)[C@@H](NC(=O)OC)C(C)C)[nH]4)ccc32)[nH]1)C(C)C (stereo partly specified)
Huh-7 [1]
  EC90: 0.005 nM
[2]
  EC90: 0.02 nM
Huh-7 [3]
  EC90: 0.18 nM
[6]
  EC90: 0.007 nM
Huh-7 [7]
  EC90: 0.009 nM
Huh-7 [8]
  EC90: 0.005 nM

## COC(=O)N[C@H](C(=O)N1CCC[C@H]1c1ncc(-c2cc(F)c3c(c2)OC(c2cc(F)c(C4CC4)s2)n2c-3cc3cc(-c4cnc([C@@H]5CCCN5C(=O)[C@@H](NC(=O)OC)C(C)C)[nH]4)ccc32)[nH]1)C(C)C (stereo partly specified)
Huh-7 [1]
  EC90: 0.005 nM
[2]
  EC90: 0.17 nM
Huh-7 [3]
  EC90: 0.68 nM
[6]
  EC90: 0.029 nM
Huh-7 [7]
  EC90: 0.012 nM
Huh-7 [8]
  EC90: 0.014 nM

## COC(=O)N[C@H](C(=O)N1CCC[C@H]1c1ncc(-c2cc(F)c3c(c2)OC(c2cnc(C(C)C)s2)n2c-3cc3cc(-c4cnc([C@@H]5C[C@H]6C[C@H]6N5C(=O)[C@@H](NC(=O)OC)C(C)C)[nH]4)ccc32)[nH]1)C(C)C (stereo partly specified)
Huh-7 [1]
  EC90: 0.003 nM
[2]
  EC90: 0.028 nM
Huh-7 [3]
  EC90: 0.23 nM
[6]
  EC90: 0.008 nM
Huh-7 [7]
  EC90: 0.006 nM
Huh-7 [8]
  EC90: 0.006 nM

## COC(=O)N[C@H](C(=O)N1CCC[C@H]1c1ncc(-c2cc(F)c3c(c2)OC(c2cnc(C4(C)CC4)s2)n2c-3cc3cc(-c4cnc([C@@H]5CCCN5C(=O)[C@@H](NC(=O)OC)C(C)C)[nH]4)ccc32)[nH]1)C(C)C (stereo partly specified)
Huh-7 [1]
  EC90: 0.017 nM
[2]
  EC90: 0.38 nM
Huh-7 [3]
  EC90: 0.68 nM
[6]
  EC90: 0.065 nM
Huh-7 [7]
  EC90: 0.046 nM
Huh-7 [8]
  EC90: 0.027 nM

## COC(=O)N[C@H](C(=O)N1CCC[C@H]1c1ncc(-c2cc(F)c3c(c2)OC(c2cc(C)c(C4CC4)s2)n2c-3cc3cc(-c4cnc([C@@H]5CCCN5C(=O)[C@@H](NC(=O)OC)C(C)C)[nH]4)ccc32)[nH]1)C(C)C (stereo partly specified)
Huh-7 [1]
  EC90: 0.002 nM
[2]
  EC90: 1.7 nM
Huh-7 [3]
  EC90: 0.88 nM
[6]
  EC90: 0.009 nM
Huh-7 [7]
  EC90: 0.004 nM
Huh-7 [8]
  EC90: 0.002 nM

## COC(=O)N[C@H](C(=O)N1CCC[C@H]1c1ncc(-c2cc(F)c3c(c2)OC(c2cnc(OC)s2)n2c-3cc3cc(-c4cnc([C@@H]5CCCN5C(=O)[C@@H](NC(=O)OC)C(C)C)[nH]4)ccc32)[nH]1)C(C)C (stereo partly specified)
Huh-7 [1]
  EC90: 0.002 nM
[2]
  EC90: 0.035 nM
Huh-7 [3]
  EC90: 0.068 nM
[6]
  EC90: 0.015 nM
Huh-7 [7]
  EC90: 0.007 nM
Huh-7 [8]
  EC90: 0.004 nM

## COC(=O)N[C@H](C(=O)N1CCC[C@H]1c1ncc(-c2cc(F)c3c(c2)OC(c2ccc(C4CC4(F)F)s2)n2c-3cc3cc(-c4cnc([C@@H]5CCCN5C(=O)[C@@H](NC(=O)OC)C(C)C)[nH]4)ccc32)[nH]1)C(C)C (stereo partly specified)
Huh-7 [1]
  EC90: 0.002 nM
[2]
  EC90: 0.084 nM
Huh-7 [3]
  EC90: 0.43 nM
[6]
  EC90: 0.02 nM
Huh-7 [7]
  EC90: 0.007 nM
Huh-7 [8]
  EC90: 0.003 nM

## COC(=O)N[C@H](C(=O)N1CCC[C@H]1c1ncc(-c2cc(F)c3c(c2)OC(c2cnc(C(C)C)s2)n2c-3cc3cc(-c4cnc([C@@H]5CCCN5C(=O)[C@@H](NC(=O)OC)C(C)C)[nH]4)ccc32)[nH]1)C(C)C (stereo partly specified)
Huh-7 [1]
  EC90: 0.002 nM
[2]
  EC90: 0.05 nM
Huh-7 [3]
  EC90: 0.14 nM
[6]
  EC90: 0.022 nM
Huh-7 [7]
  EC90: 0.006 nM
Huh-7 [8]
  EC90: 0.004 nM

## COC(=O)N[C@H](C(=O)N1CCC[C@H]1c1ncc(-c2cc(F)c3c(c2)OC(c2cnc(C4CC4)o2)n2c-3cc3cc(-c4cnc([C@@H]5CCCN5C(=O)[C@@H](NC(=O)OC)C(C)C)[nH]4)ccc32)[nH]1)C(C)C (stereo partly specified)
Huh-7 [1]
  EC90: 0.007 nM
[2]
  EC90: 1.8 nM
Huh-7 [3]
  EC90: 1.1 nM
[6]
  EC90: 0.46 nM
Huh-7 [7]
  EC90: 0.18 nM
Huh-7 [8]
  EC90: 0.03 nM

## COC(=O)N[C@H](C(=O)N1CCC[C@H]1c1ncc(-c2cc(F)c3c(c2)OC(c2nc4ccccc4o2)n2c-3cc3cc(-c4cnc([C@@H]5CCCN5C(=O)[C@@H](NC(=O)OC)C(C)C)[nH]4)ccc32)[nH]1)C(C)C (stereo partly specified)
Huh-7 [1]
  EC90: 0.004 nM
[2]
  EC90: 0.32 nM
Huh-7 [3]
  EC90: 1 nM
[6]
  EC90: 0.042 nM
Huh-7 [7]
  EC90: 0.025 nM
Huh-7 [8]
  EC90: 0.008 nM

## COC(=O)N[C@H](C(=O)N1CCC[C@H]1c1ncc(-c2cc(F)c3c(c2)OC(c2sccc2C2CC2)n2c-3cc3cc(-c4cnc([C@@H]5CCCN5C(=O)[C@@H](NC(=O)OC)C(C)C)[nH]4)ccc32)[nH]1)C(C)C (stereo partly specified)
Huh-7 [1]
  EC90: 0.012 nM
[2]
  EC90: 70 nM
Huh-7 [3]
  EC90: > 33 nM
[6]
  EC90: 1.74 nM
Huh-7 [7]
  EC90: 4.7 nM
Huh-7 [8]
  EC90: 0.32 nM
